GI50 and TGI data for ten compounds are collected here from PubChem BioAssay (NCI).

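Assay format: 96-well plates, 48-hour exposure. At the GI50, growth is halved. TGI: concentration producing complete growth inhibition.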

Test systems include MCF7 breast; SF-268 CNS; SF-539 CNS; OVCAR-3 ovarian; K-562 leukemia; HOP-92 NSCLC; 786-0 renal; OVCAR-4 ovarian.
Assay in all cases: NCI-60 cell line screen, 48 h

For `COC(=O)Nc1nc2cc3c(cc2s1)OCCO3`, the GI50 with MCF7 breast, in the assay with SF-268 CNS, in the assay on SF-539 CNS, with OVCAR-3 ovarian, in the assay on K-562 leukemia and in the assay with HOP-92 NSCLC was greater than 50 µM throughout. In addition, the GI50 in the assay with 786-0 renal and with OVCAR-4 ovarian was greater than 50 µM in each case. Also, the TGI in the assay with MCF7 breast, in the assay on SF-268 CNS, in the assay with SF-539 CNS, in the assay on OVCAR-3 ovarian, in the assay on K-562 leukemia and in the assay with HOP-92 NSCLC was greater than 50 µM throughout. For the same compound, the TGI in the assay on 786-0 renal and in the assay on OVCAR-4 ovarian was greater than 50 µM throughout.

For `NCC1OC(OC2C(CO)OC(OC3C(O)C(N)CC(N)C3OC3OC(CO)C(O)C(O)C3N)C2O)C(N)C(O)C1O` (stereo not given), the GI50 in the assay on MCF7 breast, in the assay with SF-268 CNS, in the assay on SF-539 CNS, in the assay with OVCAR-3 ovarian, in the assay on K-562 leukemia and in the assay with HOP-92 NSCLC was greater than 50 µg/mL in each case. Besides, the GI50 in the assay with 786-0 renal and in the assay on OVCAR-4 ovarian was greater than 50 µg/mL in each case. The TGI in the assay with MCF7 breast, with SF-268 CNS, in the assay on SF-539 CNS, in the assay with OVCAR-3 ovarian, with K-562 leukemia and with HOP-92 NSCLC was greater than 50 µg/mL each time. The TGI in the assay with 786-0 renal and in the assay on OVCAR-4 ovarian was greater than 50 µg/mL each time.

Take `C=C1CCC2C3(C)COC(c4ccc(SC)cc4)OC3CCC2(C)C1C/C=C1/C(=O)OCC1O` (stereo not given): the GI50 with MCF7 breast was 3.04 µM; in the assay with SF-268 CNS, 6.8 µM; in the assay with SF-539 CNS, 4.75 µM; in the assay with OVCAR-3 ovarian, 2.8 µM; in the assay with K-562 leukemia, 2.66 µM; with HOP-92 NSCLC, 5.19 µM. Moreover, the GI50 with 786-0 renal was 6.7 µM; in the assay on OVCAR-4 ovarian it was 5.81 µM. The TGI in the assay on MCF7 breast is 11.7 µM; in the assay with SF-268 CNS, 19.9 µM; in the assay with SF-539 CNS, 9.38 µM; in the assay with OVCAR-3 ovarian it was 6.91 µM; in the assay with K-562 leukemia, 12.2 µM; with HOP-92 NSCLC it was 17.1 µM. The TGI worked out at 19.2 µM with 786-0 renal and 18.7 µM in the assay with OVCAR-4 ovarian.

Regarding `CC(=O)OC1CCC2(C)C(=CCC3C2CCC2(C)C(C(C)C(=O)O)CCC32)C1` (stereo not given), the TGI in the assay on MCF7 breast, with SF-268 CNS, in the assay on SF-539 CNS, in the assay on OVCAR-3 ovarian, in the assay on K-562 leukemia and in the assay on HOP-92 NSCLC was greater than 100 µM in each case. For the same compound, the TGI in the assay on 786-0 renal and in the assay with OVCAR-4 ovarian was greater than 100 µM in each case.

As to `CCC1CC(=O)N(SCC(N)C(=O)O)C1=O` (stereo not given), the TGI in the assay with MCF7 breast, in the assay on SF-268 CNS, in the assay with SF-539 CNS, with OVCAR-3 ovarian, with K-562 leukemia and in the assay on HOP-92 NSCLC was greater than 100 µM each time. Moreover, the TGI with 786-0 renal and with OVCAR-4 ovarian was greater than 100 µM each time.

On to `CC[CH2][Sn]([Cl])([Cl])[CH2]CC`, for which the GI50 with MCF7 breast was 3.27 µM; in the assay on SF-268 CNS, 9.63 µM; with SF-539 CNS, 11.1 µM; with OVCAR-3 ovarian it was 12.9 µM; with K-562 leukemia, 3.33 µM; in the assay with HOP-92 NSCLC, 10.6 µM. Also, the GI50 was 10.8 µM in the assay with 786-0 renal and 12.9 µM in the assay with OVCAR-4 ovarian. The TGI in the assay on MCF7 breast was 16.5 µM; with SF-268 CNS, 22.5 µM; with SF-539 CNS, 25 µM; in the assay on OVCAR-3 ovarian, 26.1 µM; in the assay with K-562 leukemia it was greater than 100 µM; with HOP-92 NSCLC it was 23.7 µM. Besides, the figures for the TGI with 786-0 renal and in the assay on OVCAR-4 ovarian were 23 µM and 25.6 µM, respectively.

Regarding `COc1ccc(/C=C\c2cc(OC)c(OC)c(OC)c2)cc1OC(=O)c1cccc(Cn2cc(CCOC(=O)c3cccc(Cn4nnc5c4C(=O)c4ccccc4C5=O)c3)nn2)c1`, the GI50 was 0.0216 µM in the assay with MCF7 breast; 0.0395 µM in the assay with SF-268 CNS; less than 0.01 µM in the assay on SF-539 CNS; less than 0.01 µM in the assay with OVCAR-3 ovarian; less than 0.01 µM with K-562 leukemia; 0.464 µM in the assay with HOP-92 NSCLC. Moreover, the GI50 with 786-0 renal is 0.101 µM; with OVCAR-4 ovarian it was 0.0403 µM. Moreover, the TGI in the assay with MCF7 breast is greater than 70.5 µM; with SF-268 CNS it was 35 µM; in the assay on SF-539 CNS, 0.134 µM; in the assay on K-562 leukemia, greater than 100 µM; with HOP-92 NSCLC, 33.7 µM; in the assay on 786-0 renal it was 17.5 µM. This compound registered a TGI in the assay with OVCAR-4 ovarian greater than 100 µM.

Consider `O=c1[nH]c(SCc2c(Cl)c(Cl)c(Cl)c(Cl)c2Cl)nc(=S)[nH]1`, for which the TGI is greater than 100 µM with MCF7 breast; greater than 100 µM in the assay on SF-268 CNS; greater than 100 µM in the assay with SF-539 CNS; 31 µM with OVCAR-3 ovarian; 45.9 µM in the assay on K-562 leukemia; greater than 100 µM with HOP-92 NSCLC. Moreover, the TGI in the assay with 786-0 renal is greater than 100 µM; in the assay on OVCAR-4 ovarian it was 54.8 µM.

Turning to `COc1cc2c3c(n(C)c(=O)c2cc1OC)-c1cc2c(cc1/C3=C\CCCBr)OCO2`, the GI50 was 16.2 µM in the assay with MCF7 breast; 16.1 µM with SF-268 CNS; 10.3 µM in the assay on SF-539 CNS; greater than 92.2 µM with OVCAR-3 ovarian; 58.3 µM with K-562 leukemia; 92.4 µM in the assay on HOP-92 NSCLC. The GI50 with 786-0 renal is 8.5 µM; in the assay on OVCAR-4 ovarian, 39.2 µM. Besides, the TGI in the assay on MCF7 breast was greater than 64.8 µM; in the assay with SF-268 CNS, greater than 54.8 µM; in the assay with SF-539 CNS, greater than 41.6 µM; with OVCAR-3 ovarian it was greater than 100 µM; with K-562 leukemia, greater than 100 µM; with HOP-92 NSCLC, greater than 100 µM. In addition, the figures for the TGI in the assay with 786-0 renal and in the assay on OVCAR-4 ovarian were greater than 40.2 µM and greater than 100 µM, respectively.

With `COc1cc(C2CC(c3cc(C)ccc3C)=NN2c2ccc(S(=O)(=O)NC(=O)NCc3ccccc3)cc2)cc(OC)c1OC` (stereo not given), the GI50 with MCF7 breast is 2.58 µM; with SF-268 CNS, 4.9 µM; in the assay with SF-539 CNS, 2.02 µM; in the assay with OVCAR-3 ovarian, 2.42 µM; with K-562 leukemia, 4 µM; in the assay on HOP-92 NSCLC, 1.96 µM. For the same compound, the GI50 was 3.79 µM in the assay on 786-0 renal and 3.28 µM in the assay on OVCAR-4 ovarian. The TGI in the assay with MCF7 breast is 9.56 µM; in the assay with SF-268 CNS it was 34.8 µM; with SF-539 CNS, 4.69 µM; with OVCAR-3 ovarian, 5.4 µM; in the assay on K-562 leukemia it was 34.1 µM; with HOP-92 NSCLC it was 7.47 µM. Moreover, the TGI with 786-0 renal is 23.5 µM; with OVCAR-4 ovarian, 39.6 µM.
